Experimental data taken from paper PMC7460063, “Unique Polyhalogenated Peptides from the Marine Sponge Ircinia sp” (Marine Drugs, 2020).
Non-standard residues stand in square brackets, D forms with d. Residues, ends and D or L forms follow the SMILES beside them. *: point of attachment. X1 = Cn1c(Br)c(Br)c(Br)c1C(=O)*; NMeL = CN[C@@H](CC(C)C)C(=O)O

Experiments:
PSN-1 = experiment: Cytotoxic activity against pancreas tumor cell line PSN-1; format: cell-based; details: PSN-1 (pancreas), human tumor cell line
MDA-MB-231 = experiment: Cytotoxic activity against breast tumor cell line MDA-MB-231; format: cell-based; details: MDA-MB-231 (breast), human tumor cell line
[1] = test system: interaction between the programmed cell death protein PD-1 and its natural ligand PDL1; experiment: Cell-based assay of PD-1/PDL1 interaction; details: for %Inhibition at 1 × 10^−5 M (PD-1): final readout dependent on the interaction between PD-1 and PDL1; for impairment of PD-1/PDL1 interaction: final readout dependent on the interaction between the two proteins
HT-29 = experiment: Cytotoxic activity against colon tumor cell line HT-29; format: cell-based; details: HT-29 (colon), human tumor cell line
A-549 = experiment: Cytotoxic activity against lung tumor cell line A-549; format: cell-based; details: A-549 (lung), human tumor cell line
four cancer cell lines [2] = experiment: Cytotoxic activity, four cancer cell lines (summary); format: cell-based, human; details: four cancer cell lines: A-549, HT-29, MDA-MB-231, PSN-1
topoisomerase I = experiment: Topoisomerase I inhibition; format: biochemical
four cancer cell lines [3] = details: cited for comparison with 1 and 2; cited from earlier work
Description: In summary, two new peptides bearing unprecedented halogenated moieties, haloirciniamide A (1) and seribunamide A (2), were isolated from a marine sponge belonging to the Irnicia genus, which was selected for further studies. The sample was collected around the Thousand Islands (Indonesia) by the Pharmamar expedition team in collaboration with the Research Center for Oceanography, Indonesian Institute of Sciences (RCO-LIPI). The planar structures of the novel compounds were determined by a combination of extensive NMR and HPLC-MS experiments. The absolute configuration was achieved by Marfey’s ...

Compound | GI50 (PSN-1) | GI50 (MDA-MB-231) | %Inhibition at 1 × 10^−5 M (PD-1) [1] | impairment of PD-1/PDL1 interaction [1] | GI50 (HT-29) | GI50 (A-549) | cytotoxic activity (four cancer cell lines [2]) | %Inhibition at 1 × 10^−5 M (Top-I) (topoisomerase I; 1 × 10^−5 M) | inhibition of topoisomerase I (topoisomerase I; 1.0 × 10^−5 M) | cytotoxic activity (words, comparison compound gunungamide A) (four cancer cell lines [3]) | cytotoxic activity (words, comparison compound cyclocinamide B) (four cancer cell lines [3])
CN1C(=O)C[C@H](C(N)=O)NC(=O)[C@@H](O)CNC(=O)[C@H](CNC(=O)c2cc(Br)c(Br)[nH]2)NC(=O)[C@H](CN)NC(=O)C1Cc1cnc(Cl)[nH]1 (stereo partly drawn) [Compound 1, haloirciniamide A] | > 12 µM | > 12 µM | 0.3% | unable to impair the interaction | > 12 µM | > 12 µM | not observed | 3% | no inhibition of the enzyme | – | –
gunungamide A | – | – | – | – | – | – | – | – | – | not observed | –
cyclocinamide B | – | – | – | – | – | – | – | – | – | – | not observed
CC[C@H](C)[C@H](NC(=O)c1c(Br)c(Br)c(Br)n1C)C(=O)N(C)[C@@H](CC(C)C)C(=O)N1CCC[C@H]1C(=O)N[C@@H](CCC(N)=O)C(=O)O [Compound 2, seribunamide A] (X1-I[NMeL]PQ-OH) | > 12 µM | > 12 µM | −3.5% | unable to impair the interaction | > 12 µM | > 12 µM | not observed | – | – | – | –
